Experimental data published in the supplement of paper PMC11451515.

How the values were obtained:
Settings in all cases: 48 h
SEM cells [1] = experiment: AUC of viability dose-response curve (% viability x log10 dose units); higher = less sensitive
Summary of the method: (§1)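 Seeding of medium-adapted leukemia cells was at 500 or 1000 cells/well in 1536-well plates, followed by 48 h at 37°C with library compounds in DMSO at 11 threefold doses from 47 μM to 0.79 nM. CellTiter-Glo One luminescence was normalised per plate to DMSO and cell-free wells and fitted as a four-parameter log-logistic function of log10 dose. Area under the curve was integrated by trapezoidal rule, with curves exceeding full viability scaled and curves failing quality control removed.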

P12-Ichikawa [2] = experiment: as above
Summary of the method: as §1

NOMO1 [3] = experiment: as above
Summary of the method: as §1

SEM cells [4] = experiment: cell viability relative to DMSO control; higher = less cytotoxic
Summary of the method: (§2)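 NOMO1, SEM and P12-Ichikawa leukemia cells spent at least four passages adapting to each medium before use. They were seeded at 500 cells/well (NOMO1, SEM) or 1000 cells/well (P12-Ichikawa) in 5 μl in 1536-well plates and pin-dosed with library compounds in DMSO at 11 threefold steps from 47 μM down to 0.79 nM. After 48 h at 37°C, CellTiter-Glo One luminescence was read. Viability is reported as a percentage of the DMSO wells on each plate, with cell-free wells as background.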

P12-Ichikawa [5] = experiment: as above
Summary of the method: as §2

NOMO1 [6] = experiment: as above
Summary of the method: as §2

CNC(=O)c1ccccc1Nc1nc(Nc2ccc(N3CCOCC3)cc2OC)ncc1Cl
AUC of viability dose-response curve
Settings	NOMO1 [3]	P12-Ichikawa [2]	SEM cells [1]
HPLM + 10% dialyzed FBS	387	408	349
RPMI 5 mM glucose + 10% FBS	397	404	332
RPMI 5 mM glucose + 10% dialyzed FBS	377	416	337

COc1ccc(N(C(=O)Oc2c(C)cccc2C)c2ccnc(Nc3ccc(N4CCN(C)CC4)cc3)n2)c(OC)c1
AUC of viability dose-response curve
Settings	HPLM + 10% dialyzed FBS	RPMI 5 mM glucose + 10% FBS	RPMI 5 mM glucose + 10% dialyzed FBS
P12-Ichikawa [2]	466	457	459
SEM cells [1]	456	455	451

Fc1ccc(CNc2ncnc3ccc(F)cc23)cc1
AUC of viability dose-response curve
Settings	HPLM + 10% dialyzed FBS	RPMI 5 mM glucose + 10% FBS	RPMI 5 mM glucose + 10% dialyzed FBS
NOMO1 [3]	445	452	419
P12-Ichikawa [2]	453	429	429

O=C([O-])Cc1ccccc1Nc1c(Cl)cccc1Cl
AUC of viability dose-response curve
Settings	NOMO1 [3]	P12-Ichikawa [2]	SEM cells [1]
HPLM + 10% dialyzed FBS	454	447	442
RPMI 5 mM glucose + 10% FBS	455	445	429
RPMI 5 mM glucose + 10% dialyzed FBS	458	447	430

cell viability [%], SEM cells [4]
Settings	HPLM + 10% dialyzed FBS	RPMI 5 mM glucose + 10% FBS
0.000781 µM	109	126
0.00234 µM	121	113
0.00702 µM	110	113
0.0211 µM	125	109
0.0632 µM	126	123
0.19 µM	129	112
0.569 µM	117	111
1.71 µM	122	111
5.12 µM	75.7	69.1
15.4 µM	112	108
46.1 µM	65.9	49

NC(=O)c1cccc(-c2cccc(OC(=O)NC3CCCCC3)c2)c1
AUC of viability dose-response curve
Settings	NOMO1 [3]	P12-Ichikawa [2]	SEM cells [1]
HPLM + 10% dialyzed FBS	461	413	421
RPMI 5 mM glucose + 10% FBS	473	402	357
RPMI 5 mM glucose + 10% dialyzed FBS	472	380	376

cell viability [%], SEM cells [4]
Settings	HPLM + 10% dialyzed FBS	RPMI 5 mM glucose + 10% FBS
0.000781 µM	110	116
0.00234 µM	125	119
0.00702 µM	128	120
0.0211 µM	133	120
0.0632 µM	124	119
0.19 µM	38.4	33
0.569 µM	128	110
1.71 µM	96.5	78.1
5.12 µM	94.7	62.2
15.4 µM	104	78
46.1 µM	96.9	71.5

COc1cc(C(C)C)c(Oc2cnc(NC(CO)CO)nc2N)cc1I
AUC of viability dose-response curve
Settings	NOMO1 [3]	P12-Ichikawa [2]	SEM cells [1]
HPLM + 10% dialyzed FBS	468	464	458
RPMI 5 mM glucose + 10% FBS	436	466	442
RPMI 5 mM glucose + 10% dialyzed FBS	457	452	453

CC(C)NCC(O)c1ccc(O)c(O)c1 (stereo unspecified)
AUC of viability dose-response curve
Settings	NOMO1 [3]	P12-Ichikawa [2]	SEM cells [1]
HPLM + 10% dialyzed FBS	376	389	455
RPMI 5 mM glucose + 10% FBS	389	394	427
RPMI 5 mM glucose + 10% dialyzed FBS	391	407	457

CC/1=C/N([C@@H]2C[C@@H](O)[C@H](CO)O2)C(=O)NC1=O
AUC of viability dose-response curve
Settings	HPLM + 10% dialyzed FBS	RPMI 5 mM glucose + 10% FBS	RPMI 5 mM glucose + 10% dialyzed FBS
NOMO1 [3]	453	408	413
P12-Ichikawa [2]	388	353	338

cell viability [%]
Settings	NOMO1 [6]	P12-Ichikawa [5]	SEM cells [4]
HPLM + 10% dialyzed FBS, 0.000781 µM	97.5	93.7	78.6
HPLM + 10% dialyzed FBS, 0.00234 µM	109	89.4	82
HPLM + 10% dialyzed FBS, 0.00702 µM	89	96.2	71.8
HPLM + 10% dialyzed FBS, 0.0211 µM	104	85.5	94.7
HPLM + 10% dialyzed FBS, 0.0632 µM	102	78.7	74
HPLM + 10% dialyzed FBS, 0.19 µM	101	83.4	75.8
HPLM + 10% dialyzed FBS, 0.569 µM	100	91.7	86.4
HPLM + 10% dialyzed FBS, 1.71 µM	95.1	86.1	84.1
HPLM + 10% dialyzed FBS, 5.12 µM	80.3	73.7	54.1
HPLM + 10% dialyzed FBS, 15.4 µM	92.8	74.2	67.9
HPLM + 10% dialyzed FBS, 46.1 µM	61.2	8.14	30.7
RPMI 5 mM glucose + 10% FBS, 0.000781 µM	84.9	75.2	113
RPMI 5 mM glucose + 10% FBS, 0.00234 µM	85.2	86.7	97.1
RPMI 5 mM glucose + 10% FBS, 0.00702 µM	82	83.5	100
RPMI 5 mM glucose + 10% FBS, 0.0211 µM	83.4	85.8	97.4
RPMI 5 mM glucose + 10% FBS, 0.0632 µM	88.7	65.9	76.5
RPMI 5 mM glucose + 10% FBS, 0.19 µM	99.3	80.7	99.3
RPMI 5 mM glucose + 10% FBS, 0.569 µM	79.7	90.2	115
RPMI 5 mM glucose + 10% FBS, 1.71 µM	88.1	76	95.8
RPMI 5 mM glucose + 10% FBS, 5.12 µM	90.1	62.3	53.2
RPMI 5 mM glucose + 10% FBS, 15.4 µM	83.7	69.5	80.4
RPMI 5 mM glucose + 10% FBS, 46.1 µM	66.4	6.95	38
RPMI 5 mM glucose + 10% dialyzed FBS, 0.000781 µM	80	76.3	81.7
RPMI 5 mM glucose + 10% dialyzed FBS, 0.00234 µM	94	84.6	74.4
RPMI 5 mM glucose + 10% dialyzed FBS, 0.00702 µM	84.6	79.8	76.5
RPMI 5 mM glucose + 10% dialyzed FBS, 0.0211 µM	86.4	75.9	79.2
RPMI 5 mM glucose + 10% dialyzed FBS, 0.0632 µM	98.4	61.6	45.6
RPMI 5 mM glucose + 10% dialyzed FBS, 0.19 µM	87.7	73.3	64.3
RPMI 5 mM glucose + 10% dialyzed FBS, 0.569 µM	92.1	81.8	73.7
RPMI 5 mM glucose + 10% dialyzed FBS, 1.71 µM	85	81	62.3
RPMI 5 mM glucose + 10% dialyzed FBS, 5.12 µM	75.9	61	44.3
RPMI 5 mM glucose + 10% dialyzed FBS, 15.4 µM	94.4	64.3	56.9
RPMI 5 mM glucose + 10% dialyzed FBS, 46.1 µM	62.3	12.2	29.3
